Measurements as given in US6864283B2, “Oxy-and amino-substituted tetrahydrofuryl derivatives with antitumour activity” (Pharma Mar, S.A., priority 2000, dated 2005).

Experiments:
Assay type in all cases: cell-based
A459 human lung = assay: IC50 against A459 human lung cells
HT29 human colon = assay: IC50 against HT29 human colon cells; conditions: HT-29
MEL28 melanoma = assay: IC50 against MEL28 melanoma cells; conditions: Homo sapiens, SK-MEL-28
P388 leukemia = assay: IC50 against P388 leukemia cells; conditions: Mus musculus

Measured: IC50

CCCCCCCCCCCCCC[C@@H]1OC[C@H](N)[C@@H]1O [IK-8-73-4]
0.01 µg/mL: all assays above
